Test results published in ChEMBL document CHEMBL1142006, “Chemistry and biology of mercaptoacetamides as novel histone deacetylase inhibitors” (Bioorg Med Chem Lett, 2005).
pIC50: −log10 of the molar value.

How the values were obtained:
PC-3 = test: Antiproliferative activity against PC-3 cancer cells; format: functional, cell-based; conditions: Homo sapiens
Homo sapiens = species on record: Homo sapiens; test: Antiproliferative activity against SQ-20B cancer cells; format: functional; conditions: Cancer cell lines
MCF7 = test: Antiproliferative activity against MCF-7 cancer cell line; format: functional, cell-based; conditions: Homo sapiens
HeLa = test: Antiproliferative activity towards human HeLa cancer cells; format: functional, cell-based

Row | SMILES | pIC50 (PC-3) | pIC50 (Homo sapiens) | pIC50 (MCF7) | pIC50 (HeLa)
1 | O=C(CS)NCCCCCC(=O)Nc1cccc2cccnc12 | 4.48 | 4.51 | 4.38 | 4.52
2 | CN(C)c1ccc(C(=O)NCCCCCNC(=O)CS)cc1 | 3.96 | 4.00 | 3.90 | 3.97
3 | O=C(CS)NCCCCCNC(=O)c1ccc(-c2ccccc2)cc1 | 4.00 | 3.89 | – | 4.10
4 | O=C(CS)NCCCCCC(=O)Nc1cnc2ccccc2c1 | 4.30 | 4.00 | 4.10 | –
